US20230416329A1, “A PEPTIDE WITH DISULFIDE BONDS AND INHIBITORY ACTIVITY AGAINST SERINE PROTEASES, DERIVED HYBRID PEPTIDES THEREOF, AND USES THEREOF” (INSTITUTE OF MATERIA MEDICA , CHINESE ACADEMY OF MEDICAL …, priority 2020, published 2023)
One block for each molecule: values may come before it. Bridge positions count the residues as written; N and C are the ends. Ends that are not written are not given here. Peptide text beside a SMILES is read from it.

How the values were obtained:
[1] = rat, in vivo
Procedure: (§1) Rats were fasted for 12 hours with water ad libitum before the experiment. The animals were randomly divided into 4 groups (5 animals in each group). The normal control group was injected with normal saline solution, and the commercially available salmon Calcitonin (sCat) and synthetic Calcitonin analog (CalM) were injected subcutaneously. The capsule form Cal BT (1 umol/kg, p.o.) was administered by gavage.

chymotrypsin = chymotrypsin (Bos taurus, UniProt P00766); test: in vitro
Method in brief: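 RP-HPLC peak area tracked intact peptide after 37 °C digestion with chymotrypsin (0.05 μg/μL solution, 5 min preincubation). Samples were withdrawn at 1.5-60.0 min and stopped with 10% TFA.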

trypsin = biological target: T1, trypsin (Bos taurus, UniProt P00760); test: in vitro; conditions: for Remaining peak area (%)/Trypsin: 0 h
T1 sequence (P00760 24-246): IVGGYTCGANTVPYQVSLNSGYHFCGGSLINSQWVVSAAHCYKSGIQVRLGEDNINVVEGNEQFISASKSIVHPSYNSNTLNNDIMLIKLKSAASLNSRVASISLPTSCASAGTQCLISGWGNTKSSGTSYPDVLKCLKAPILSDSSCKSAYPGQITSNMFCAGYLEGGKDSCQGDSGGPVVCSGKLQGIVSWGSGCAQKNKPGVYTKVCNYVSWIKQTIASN
Method in brief: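 Remaining RP-HPLC peak area tracks undigested peptide over time. Samples were quenched with 10% TFA at time points between 1.5 and 60 min during 37 °C digestion. Trypsin was added from a 0.05 μg/μL solution after 5 min of thermal equilibration.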

rats = test: Hypo-calcifying effect of salmon calcitonin and analogues, blood calcium concentration in rats; type: in vivo, rat; conditions: sCat and CalM subcutaneous, capsule form Cal BT 1 umol/kg p.o., 0-24 h
Procedure: FIG. 24. The blood calcium concentration percentage-time curve of rat.
as §1
Take blood from the inner canthus of rats at the predetermined time points: 0, 2, 3, 4, 6, 8, 12, and 24 h later, with at least 0.2 mL of blood taken each time. The blood sample was placed at 4° C. for stratification and centrifuged at 3000 rpm for 10 minutes. The serum was separated and measured for serum calcium ion concentration.
The serum calcium ion concentration at 0 h was considered as baseline, the blood calcium concentration at other time was converted into the percentage ratio of baseline. The blood calcium curve was drawn with time as the X axis and the percentage of blood calcium concentration (%) as the Y axis.

mouse ear swelling = test: Croton oil mouse ear swelling, IL-17A inhibitory peptide administered subcutaneously; type: in vivo; conditions: subcutaneous, peptides 30 mg/kg, Secukinumab 5 mg/kg
Procedure: IL-17A is an inflammatory factor in many chronic inflammatory reactions. In order to quickly evaluate and analyze its anti-inflammatory effects, a mouse ear swelling model was first used for preliminary screening of anti-inflammatory activities. The experimental process is as follows. Kunming male mice (18-20 g, n=10) were labeled with picric acid. All mice in each group were coated with 10 μL croton oil on both sides of the right ear. Immediately after modeling, the positive drugs Secukinumab group (5 mg/kg), inhibitory peptides 17A, 17A-BT, 17A-CH, and 17A-EC (30 mg/kg) were subcutaneously injected. The model control group (Con) was injected with a corresponding volume of physiological saline. After causing inflammation for 4 hours, the mice in each group were killed for cervical dislocation, and then the ear pieces were punched in the symmetrical parts of the left and right ears with a hole punch. The weight was weighed and recorded. The swelling degree and swelling rate were calculated:
Swelling rate=((right ear mass−left ear mass)/left ear mass)*100%

[2] = system: P407 induced hyperlipidemia mice; test: Duodenal injection of PCSK9 inhibitory peptide, serum total cholesterol in P407 induced hyperlipidemia mice; type: in vivo, mouse
Procedure: The experimental polypeptide sample was prepared using PEG400 with a final concentration of 20 μmol/kg and the final concentration of PEG400 is 50% (w/v). The control group was saline containing PEG400 (50%).
Normal ICR mice were fasted overnight with water ad libitum. The next day, all of the mice were intraperitoneally injected with poloxamer 407 (P407, 500 mg/kg) to establish a model of lipid metabolism disorder. Six mice were intraperitoneally injected with saline as a normal control (Nor). Normal feeding resumed after 2 hours. The model animals were randomly divided into model group (Con) and polypeptide groups according to body weight, and the blood was collected from tail tip (0 min). Then, the animals were anesthetized with ether for duodenal exposure surgery. At the same time, a sample or saline containing PEG400 was injected through the duodenum. Finally, the wound was sutured. The blood was collected from tail tip at 15, 30, 60, and 90 minutes after administration to determine the serum total cholesterol level.

[3] = biological target: T2, interaction of PCSK9-LDLR (Homo sapiens, UniProt Q8NBP7); test: PCSK9-LDLR in vitro binding assay (inhibitory rate); conditions: in vitro
T2 construct: purchased MBL Company, Beijing, China CY-8150
Method in brief: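 Polypeptide (final 50 μM) pre-incubated 20 min at room temperature with PCSK9 (final 75 ng/mL), then run in a PCSK9-LDLR binding kit read at OD450/540 nm. Inhibition rate calculated relative to a solvent control (water or DMSO) lacking polypeptide.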

[4] = system: P407-induced hyperlipidemia mice; test: Subcutaneous injection of PCSK9 inhibitory peptide, serum total cholesterol in P407-induced hyperlipidemia mice; type: in vivo, mouse; conditions: for serum total cholesterol (TC) level after subcutaneous injection (in words): 2 μmol/kg single s.c., P407-induced hyperlipidemia mice
Method in brief: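 ICR mice, fasted overnight, received intraperitoneal P407 at 500 mg/kg. After 24 h they received subcutaneous peptide at 2 μmol/kg in 20% PEG400; vehicle-treated and normal groups served as controls. Serum total cholesterol was measured at various times after dosing.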

[5] = isolated enzyme chymotrypsin, pH 7.8, Remaining peak area (%)/chymotrypsin
[6] = isolated enzyme trypsin, pH 7.8

Molecule: CC[C@H](C)[C@@H]1NC(=O)[C@@H]2CCCN2C(=O)[C@@H]2CCCN2C(=O)[C@H]([C@@H](C)CC)NC(=O)[C@H](CO)NC(=O)[C@H](CCCCN)NC(=O)[C@H]([C@@H](C)O)NC(=O)[C@H](C)NC(=O)[C@H](CCCNC(=N)N)NC(=O)[C@H](C)NC(=O)[C@@H](NC(=O)CNC(=O)[C@@H]2CCCN2C(=O)[C@@H](NC(=O)CNC(=O)[C@H](CO)NC(=O)CNC(=O)[C@@H](NC(=O)[C@H](CC(N)=O)NC(=O)[C@@H](NC(=O)[C@H](CCCNC(=N)N)NC(=O)[C@@H]2CCCN2C(=O)[C@H](Cc2ccc(O)cc2)NC(=O)[C@@H](NC(=O)[C@H](CCC(N)=O)NC(=O)[C@H](CC(C)C)NC(=O)[C@H](CCCCN)NC(=O)[C@H](Cc2c[nH]cn2)NC(=O)[C@H](C)NC(=O)[C@H](CCC(=O)O)NC(=O)[C@H](CCC(N)=O)NC(=O)[C@H](CO)NC(=O)[C@H](CC(C)C)NC(=O)[C@H](CCCCN)NC(=O)CNC(=O)[C@H](CC(C)C)NC(=O)CNC(=O)[C@@H]2CSSC[C@H](N)C(=O)N[C@@H](CO)C(=O)N[C@@H](CC(N)=O)C(=O)N[C@@H](CC(C)C)C(=O)N[C@@H](CO)C(=O)N[C@@H]([C@@H](C)O)C(=O)N2)[C@@H](C)O)[C@@H](C)O)[C@@H](C)O)[C@@H](C)O)CSSC[C@@H](C(=O)N[C@@H](Cc2ccccc2)C(=O)O)NC1=O [Cal-BT]
Body weight (g) X ± SD End [1]: 158.9 ± 3.2 g | Body weight (g) X ± SD Start [1]: 176.1 ± 5.1 g | Changes of body weight (%) [1]: −9.80% | stability towards chymotrypsin hydrolysis (in words) (chymotrypsin): high tolerance to chymotrypsin | Remaining peak area (%)/chymotrypsin (chymotrypsin; 0 h): 100.0 ± 0.0% | remaining at 0.025 h, 60 μM (chymotrypsin; [5]): 86.3 ± 9% | remaining at 0.05 h, 60 μM (chymotrypsin; [5]): 83.9% | remaining at 0.075 h, 60 μM (chymotrypsin; [5]): 73.1 ± 1.7% | remaining at 0.1 h, 60 μM (chymotrypsin; [5]): 71.8 ± 1.1% | remaining at 0.15 h, 60 μM (chymotrypsin; [5]): 70 ± 3% | remaining at 0.25 h, 60 μM (chymotrypsin; [5]): 61.3% | remaining at 0.5 h, 60 μM (chymotrypsin; [5]): 58.9 ± 2.3% | remaining at 1 h, 60 μM (chymotrypsin; [5]): 46 ± 1.3% | stability towards trypsin hydrolysis (in words) (trypsin): resistant to the corresponding protease degradation | Remaining peak area (%)/Trypsin (trypsin): 100.0 ± 0.0% | remaining at 0.025 h, 60 μM (trypsin; [6]): 84.2 ± 5.6% | remaining at 0.05 h, 60 μM (trypsin; [6]): 87.8 ± 1% | remaining at 0.075 h, 60 μM (trypsin; [6]): 71.4 ± 0.9% | remaining at 0.1 h, 60 μM (trypsin; [6]): 74.3 ± 3.4% | remaining at 0.15 h, 60 μM (trypsin; [6]): 77.1 ± 8.4% | remaining at 0.25 h, 60 μM (trypsin; [6]): 69.4 ± 6.5% | remaining at 0.5 h, 60 μM (trypsin; [6]): 69.5 ± 6.6% | remaining at 1 h, 60 μM (trypsin; [6]): 68.2 ± 8.4% | blood calcium concentration (in words) (rats): did not effectively reduce the blood calcium concentration of rats within 24 h after administration | blood calcium concentration (in words) (rats; listed as Cal BT): did not effectively reduce the concentration of calcium ions in rats

Changes of body weight (%) [1]: −10.71% | remaining at 1 h, 60 μM (chymotrypsin; isolated enzyme chymotrypsin, pH 7.8, prototype peptide remaining after chymotrypsin hydrolysis): ~4.9% | stability towards trypsin hydrolysis (in words) (trypsin): extremely unstable towards trypsin | Remaining peak area (%)/Trypsin (trypsin): 100.0 ± 0.0% | remaining at 0.025 h, 60 μM (trypsin; [6]): 9 ± 2.3% | remaining at 0.05 h, 60 μM (trypsin; [6]): 0% | remaining at 0.075 h, 60 μM (trypsin; [6]): 0% | remaining at 0.1 h, 60 μM (trypsin; [6]): 0% | remaining at 0.15 h, 60 μM (trypsin; [6]): 0%
Molecule: CC(C)C[C@H](NC(=O)CNC(=O)[C@@H]1CSSC[C@H](N)C(=O)N[C@@H](CO)C(=O)N[C@@H](CC(N)=O)C(=O)N[C@@H](CC(C)C)C(=O)N[C@@H](CO)C(=O)N[C@@H]([C@@H](C)O)C(=O)N1)C(=O)NCC(=O)N[C@@H](CCCCN)C(=O)N[C@@H](CC(C)C)C(=O)N[C@@H](CO)C(=O)N[C@@H](CCC(N)=O)C(=O)N[C@@H](CCC(=O)O)C(=O)N[C@@H](C)C(=O)N[C@@H](Cc1c[nH]cn1)C(=O)N[C@@H](CCCCN)C(=O)N[C@@H](CC(C)C)C(=O)N[C@@H](CCC(N)=O)C(=O)N[C@H](C(=O)N[C@@H](Cc1ccc(O)cc1)C(=O)N1CCC[C@H]1C(=O)N[C@@H](CCCNC(=N)N)C(=O)N[C@H](C(=O)N[C@@H](CC(N)=O)C(=O)N[C@H](C(=O)NCC(=O)N[C@@H](CO)C(=O)NCC(=O)N[C@H](C(=O)N1CCC[C@H]1C(=O)O)[C@@H](C)O)[C@@H](C)O)[C@@H](C)O)[C@@H](C)O [CalM] (H-CSNLSTCGLGKLSQEAHKLQTYPRTNTGSGTP-OH; disulfide 1-7)
Body weight (g) X ± SD End [1]: 160.9 ± 4.7 g | Body weight (g) X ± SD Start [1]: 180.2 ± 6.8 g

Molecule: Secukinumab: positive drug in the subcutaneous ear swelling test; anti IL-17A antibody
Swelling (%) (mouse ear swelling; 4 hours after croton oil): 72.54 ± 25.32 % | Swelling inhibitory (%) (mouse ear swelling; vs model control): 37.36%

inhibitory activity on the interaction between PCSK9 and LDLR (in words) ([3]; listed as SEQ ID NO: 230): good inhibitory effects in vitro
Molecule: Trp-Glu-Glu-Tyr-Leu-Asp-Tyr-Val-Gly-Phe-Cys-Thr-Tyr-Ser-Ile-Pro-Pro-Gln-Cys-Tyr-Gly-Thr-Val-Phe-Thr-Ser (WEEYLDYVGFCTYSIPPQCYGTVFTS; disulfide 11-19 (inferred)) [PCSK9_6CH]
hypolipidemic activity after duodenal administration (in words) ([2]; 20 μmol/kg, P407 induced hyperlipidemia mice): did not show hypolipidemic activity | TC 15 min ([2]; serum, duodenal injection 20 μmol/kg, 15 min, mean ± sd): 2742 ± 651 µg/mL | TC 30 min ([2]; serum, duodenal injection 20 μmol/kg, 30 min, mean ± sd): 3071 ± 590 µg/mL | TC 60 min ([2]; serum, duodenal injection 20 μmol/kg, 60 min, mean ± sd): 3127 ± 567 µg/mL | TC 90 min ([2]; serum, duodenal injection 20 μmol/kg, 90 min, mean ± sd): 2986 ± 650 µg/mL | inhibitory activity on the interaction between PCSK9 and LDLR (in words) [3]: good inhibitory activity on the interaction between PCSK9 and LDLR | serum total cholesterol (TC) level after subcutaneous injection (in words) [4]: reduced serum TC level | serum total cholesterol (TC) level after subcutaneous injection (in words) ([4]; listed as SEQ ID NO: 230): excellent lowering lipid (total cholesterol) activities in vivo | TC 15 min ([4]; serum, subcutaneous 2 μmol/kg, 15 min after administration, mean ± sd): 3201 ± 1389 µg/mL | TC 30 min ([4]; serum, subcutaneous 2 μmol/kg, 30 min after administration, mean ± sd): 3363 ± 865 µg/mL | TC 60 min ([4]; serum, subcutaneous 2 μmol/kg, 60 min after administration, mean ± sd): 2691 ± 979 µg/mL | TC 90 min ([4]; serum, subcutaneous 2 μmol/kg, 90 min after administration, mean ± sd): 2655 ± 954 µg/mL
